The test system of series [1] is MRC-5 cells (normal cells from human lung tissue). Kind of series: MTT cytotoxicity assay, MRC-5 normal cell line (safety). The class given is cell-based. Conditions: mean ± SEM. As for the experimental part: (§1) Cell cultures were obtained from the human lung cancer cell line (A549), human cervical cancer cell line (Hela), human breast cancer cell line (MCF-7) and Normal cells isolated from human lung tissue (MRC-5) taken from the National Cell Bank of Iran (NCBI, Pasteur Institute, Tehran, Iran). All cells were cultured in RPMI-1640 medium supplemented with 10% FBS, antibiotics (penicillin 100 U/mL, streptomycin 100 µg/mL), at 37 °C in a humidified atmosphere containing 5% CO2.
(§2) Cytotoxic activities of all the synthesized compounds were assessed by standard 3-(4,5-dimethylthiazol-yl)-2,5-diphenyl-tetrazolium bromide (MTT) assay. The assay was performed according to a known protocol. The cells were seeded and plated in 96-well microplates at a density of 1 × 10^4 cells per well in 180 μL complete culture media. After 24 h incubation, the cells were treated with […] of different concentrations of synthesized compounds ranging from 1 × 10^–4 to 1 × 10^–7 M at identical conditions in triplicates. After 72 h, media were replaced with 150 μL media containing 0.5 mg/mL of MTT solution [57]. The plates were incubated at 37 °C for additional four hours. Then, media containing MTT were discarded and 150 μL dimethylsulfoxide (DMSO, > 99%) was added to each well to dissolve the formazan crystals.
On the technique in general: Tetrazolium dyes change colour on reduction, which living cells bring about.

Series [2] concerns Hela cells (human cervical cancer cell line). Kind of series: MTT cytotoxicity assay, Hela. The class given is cell-based. Conditions: 72 h, mean ± SEM. How it is done:
as §1, §2

The test system of series [3] is A549 cells (human lung cancer cell line). Kind of series: MTT cytotoxicity assay, A549. In kind it is cell-based. Conditions: mean ± SEM. As for the experimental part:
as §1, §2

For series [4], the system named is MCF-7 cells (human breast cancer cell line). Description: MTT cytotoxicity assay, MCF-7. In kind it is cell-based. Conditions: mean ± SEM. As for the experimental part: as §1, §2

The structures appear in SMILES notation.

As usually defined, the melting point is the temperature, or range, at which the solid turns liquid. Usually IC50 stands for the midpoint of a concentration-inhibition curve. Low readings indicate higher potency, high ones lower potency.

On to `O=C(c1ccccc1)C(c1ccccc1)C(C(=O)c1ccc(F)cc1)n1cncn1` (stereo not shown) [10 g, 1-(4-fluorophenyl)-3,4-diphenyl-2-(1H-1,2,4-triazol-1-yl) butane-1,4-dione], for which the melting point fell in the range of 154 to 157 °C. This molecule also displayed an IC50 in series [1] (Homo sapiens, MRC5, 72 h) of 257 ± 4.3 µM. In addition, the IC50 in series [2] (Homo sapiens, HeLa) came out at 128 ± 6.1 µM. Moreover, half-maximal inhibition in series [3] (Homo sapiens, A549, 72 h) (IC50) was put at 150 ± 4.9 µM. Moreover, the IC50 in series [4] (Homo sapiens, MCF7, 72 h) is 93 ± 3.1 µM.
In the same order, the values of `Clc1ccc(CC(C(c2ccccc2)c2ccccc2)n2cncn2)cc1` (stereo not shown) [Compound 8b, 1-(3-(4-chlorophenyl)-1,1-diphenylpropan-2-yl)-1H-1,2,4-triazole] are 93 to 96 °C, 279 ± 2.8 µM, 198 ± 5.5 µM, 124 ± 3.4 µM and 178 ± 2.5 µM.
In the same order, the values of `O=C(CC(C(=O)c1ccc(Br)cc1)n1cncn1)c1ccccc1` (stereo not shown) [Compound 10c, 1-(4-bromophenyl)-4-phenyl-2-(1H-1,2,4-triazol-1-yl) butane-1,4-dione] are 149 to 151 °C, 57.8 ± 1.7 µM, 32.4 ± 6.9 µM, 104 ± 1.3 µM and 17.3 ± 5.4 µM.
In the same order, the values of `O=C(c1ccc(Cl)cc1Cl)C(Cc1ccccc1)n1cncn1` (stereo not shown) [Compound 7b, 1-(2,4-dichlorophenyl)-3-phenyl-2-(1H-1,2,4-triazol-1-yl) propan-1-one] are 121 to 123 °C, 72.6 ± 3.4 µM, 7.9 ± 3.1 µM, 75.8 ± 4.6 µM and 23.4 ± 2.6 µM.
Molecule `O=C(c1ccccc1)C(c1ccccc1)C(C(=O)c1ccc(F)cc1F)n1cncn1` (stereo not shown) [Compound 10j, 1-(2,4-difluorophenyl)-3,4-diphenyl-2-(1H-1,2,4-triazol-1-yl) butane-1,4-dione] had a melting point of 114 to 117 °C. This molecule registered an IC50 in series [1] (Homo sapiens, MRC5, 72 h) of 101 ± 1.3 µM. For the same molecule, in series [2] (Homo sapiens, HeLa), the IC50 turned out to be 12.3 ± 1.9 µM. In series [3] (Homo sapiens, A549, 72 h), 101 ± 1.8 µM corresponded to half-maximal inhibition (IC50). Moreover, in series [4] (Homo sapiens, MCF7, 72 h), the IC50 was 45.4 ± 3.2 µM.
On to `O=C(c1ccc(Br)cc1)C(C(c1ccccc1)c1ccccc1)n1cncn1` (stereo not shown) [Compound 7d, 1-(4-bromophenyl)-3,3-diphenyl-2-(1H-1,2,4-triazol-1-yl) propan-1-one], for which the melting point was in the range of 110 to 113 °C. The molecule also had an IC50 in series [1] (Homo sapiens, MRC5, 72 h) of 35.6 ± 2.7 µM. Further, the half-inhibitory concentration (IC50) in series [2] amounted to 12.1 ± 3.6 µM. For the same molecule, the IC50 in series [2] (Homo sapiens, HeLa) is < 12 µM. Half-maximal inhibition in series [3] (Homo sapiens, A549, 72 h) (IC50) was put at 43.4 ± 4.5 µM. In series [4] (Homo sapiens, MCF7, 72 h), this molecule registered a half-inhibitory concentration (IC50) of 9.8 ± 0.9 µM.
In turn, `O=C(c1ccc(Cl)cc1Cl)C(C(c1ccccc1)c1ccccc1)n1cncn1` (stereo not shown) [Compound 7e, 1-(2,4-dichlorophenyl)-3,3-diphenyl-2-(1H-1,2,4-triazol-1-yl) propan-1-one] registered a melting point of 118 to 121 °C. This molecule came in with an IC50 in series [1] (Homo sapiens, MRC5, 72 h) of 27.8 ± 3.7 µM. Also, inhibition in series [3] (Homo sapiens, A549, 72 h) was half-maximal at 9.4 ± 1.8 µM (IC50). In series [4] (Homo sapiens, MCF7, 72 h), this molecule gave an IC50 of 4.7 ± 1.4 µM.
Consider `N.N.[Cl][Pt][Cl]` [Cis platin, reference compound], for which the IC50 stood at 45.2 ± 2.5 µM in series [1] (72 h), 12.3 ± 3.3 µM in series [2], 14.8 ± 0.27 µM in series [3] (72 h) and 36.5 ± 1.9 µM in series [4] (72 h).
`c1ccc(CC(Cc2ccccc2)n2cncn2)cc1` [Compound 8a, 1-(1,3-diphenylpropan-2-yl)-1H-1,2,4-triazole] registered a melting point of 81 to 83 °C. In addition, half-maximal inhibition in series [1] (Homo sapiens, MRC5, 72 h) (IC50) required 279.1 ± 2.5 µM. Inhibition in series [2] (Homo sapiens, HeLa) was half-maximal at 142 ± 2.1 µM (IC50). For the same molecule, the IC50 in series [3] (Homo sapiens, A549, 72 h) worked out at 127 ± 4.9 µM. The same molecule had an IC50 in series [4] (Homo sapiens, MCF7, 72 h) of 158 ± 3.5 µM.
As to `O=C(c1ccccc1)C(c1ccccc1)C(C(=O)c1ccc(Br)cc1)n1cncn1` (stereo not shown) [Compound 10i, 1-(4-bromophenyl)-3,4-diphenyl-2-(1H-1,2,4-triazol-1-yl) butane-1,4-dione], the melting point lay within 168 to 171 °C. In addition, half-maximal inhibition in series [1] (Homo sapiens, MRC5, 72 h) (IC50) was put at 218 ± 3.2 µM. Besides, the IC50 in series [2] (Homo sapiens, HeLa) was found to be 59.3 ± 2.7 µM. This molecule gave an IC50 in series [3] (Homo sapiens, A549, 72 h) of 135 ± 5.3 µM. The molecule further yielded an IC50 in series [4] (Homo sapiens, MCF7, 72 h) of 72.2 ± 6.5 µM.
In the same order, the values of `O=C(c1ccccc1)C(c1ccccc1)C(C(=O)c1ccc(Cl)cc1Cl)n1cncn1` (stereo not shown) [10 k, 1-(2,4-dichlorophenyl)-3,4-diphenyl-2-(1H-1,2,4-triazol-1-yl) butane-1,4-dione] are 178 to 181 °C, 148 ± 6.1 µM, 121 ± 6.8 µM, 102 ± 5.2 µM and 44.1 ± 7.6 µM.
With `O=C(c1ccccc1)C(Cc1ccccc1)n1cncn1` (stereo not shown) [Compound 7a, 1,3-diphenyl-2-(1H-1,2,4-triazol-1-yl) propan-1-one], the melting point fell in the range of 145 to 148 °C. For the same molecule, in series [1] (Homo sapiens, MRC5, 72 h), the IC50 is > 300 µM. Also, the IC50 in series [2] (Homo sapiens, HeLa) was found to be 92.4 ± 7.3 µM. This molecule also yielded an IC50 in series [3] (Homo sapiens, A549, 72 h) of 150 ± 5.3 µM. Also, in series [4] (Homo sapiens, MCF7, 72 h), the IC50 is 154 ± 5.8 µM.
With `O=C(c1ccc(Cl)cc1)C(C(c1ccccc1)c1ccccc1)n1cncn1` (stereo not shown) [Compound 7c, 1-(4-chlorophenyl)-3,3-diphenyl-2-(1H-1,2,4-triazol-1-yl) propan-1-one], the melting point was in the range of 140 to 142 °C. In series [1] (Homo sapiens, MRC5, 72 h), this molecule showed an IC50 of 201 ± 9.5 µM. Besides, it took 81.7 ± 6.3 µM to reach half-maximal inhibition in series [2] (Homo sapiens, HeLa) (IC50). The molecule further had an IC50 in series [3] (Homo sapiens, A549, 72 h) of 177 ± 5.9 µM. In addition, in series [4] (Homo sapiens, MCF7, 72 h), it took 60 ± 4.9 µM to reach half-maximal inhibition (IC50).
On the same counts, the results for `O=C(c1ccccc1)C(c1ccccc1)C(C(=O)c1ccc(Cl)cc1)n1cncn1` (stereo not shown) [10 h, 1-(4-chlorophenyl)-3,4-diphenyl-2-(1H-1,2,4-triazol-1-yl) butane-1,4-dione] are 174 to 176 °C, 249 ± 5.8 µM, 172 ± 7.1 µM, 112 ± 10.8 µM and 89 ± 5.2 µM.
Turning to `O=C(CC(C(=O)c1ccc(Cl)cc1)n1cncn1)c1ccccc1` (stereo not shown) [Compound 10b, 1-(4-chlorophenyl)-4-phenyl-2-(1H-1,2,4-triazol-1-yl) butane-1,4-dione], the melting point lay within 131 to 133 °C. In series [1] (Homo sapiens, MRC5, 72 h), this molecule returned an IC50 of 259 ± 8.3 µM. In series [2] (Homo sapiens, HeLa), this molecule showed an IC50 of 48.3 ± 4.1 µM. In addition, in series [3] (Homo sapiens, A549, 72 h), the IC50 amounted to 110 ± 1.3 µM. The same molecule gave an IC50 in series [4] (Homo sapiens, MCF7, 72 h) of 62.6 ± 2.5 µM.
On the same counts, the results for `Brc1ccc(CC(C(c2ccccc2)c2ccccc2)n2cncn2)cc1` (stereo not shown) [Compound 8c, 1-(3-(4-bromophenyl)-1,1-diphenylpropan-2-yl)-1H-1,2,4-triazole] are 88 to 91 °C, 104 ± 7.3 µM, 79.1 ± 2.5 µM, 104 ± 7.3 µM and 52.8 ± 7.4 µM.
`O=C(CC(C(=O)c1ccc(Cl)cc1Cl)n1cncn1)c1ccccc1` (stereo not shown) [Compound 10e, 1-(2,4-dichlorophenyl)-4-phenyl-2-(1H-1,2,4-triazol-1-yl) butane-1,4-dione] yielded a melting point of 153 to 156 °C. The molecule also showed an IC50 in series [1] (Homo sapiens, MRC5, 72 h) of 104 ± 7.3 µM. For the same molecule, the IC50 in series [2] (Homo sapiens, HeLa) stood at 31.6 ± 4.2 µM. In addition, 104 ± 5.9 µM corresponded to half-maximal inhibition in series [3] (Homo sapiens, A549, 72 h) (IC50). The same molecule gave an IC50 in series [4] (Homo sapiens, MCF7, 72 h) of 45.4 ± 6.5 µM.
As to `O=C(c1ccccc1)C(c1ccccc1)C(C(=O)c1ccccc1)n1cncn1` (stereo not shown) [Compound 10f, 4-triphenyl-3-(1H-1,2,4-triazol-1-yl) butane-1,4-dione], the melting point fell in the range of 185 to 188 °C. The molecule also registered an IC50 in series [1] (Homo sapiens, MRC5, 72 h) of 289 ± 10.2 µM. Besides, half-maximal inhibition in series [2] (Homo sapiens, HeLa) (IC50) was put at 82.7 ± 5.8 µM. For the same molecule, the IC50 in series [3] (Homo sapiens, A549, 72 h) is 114 ± 7.6 µM. The same molecule displayed an IC50 in series [4] (Homo sapiens, MCF7, 72 h) of 134 ± 4.5 µM.
For `O=C(CC(C(=O)c1ccc(Br)cc1)n1cncn1)c1ccc(Cl)cc1` (stereo not shown) [Compound 10d, 1-(4-bromophenyl)-4-(4-chlorophenyl)-2-(1H-1,2,4-triazol-1-yl) butane-1,4-dione], the melting point fell in the range of 162 to 165 °C. This molecule returned an IC50 in series [1] (Homo sapiens, MRC5, 72 h) of 42.8 ± 2.1 µM. In series [2], this molecule displayed an IC50 of 9.8 ± 1.7 µM. Further, the IC50 in series [2] (Homo sapiens, HeLa) was < 12 µM. Moreover, in series [3] (Homo sapiens, A549, 72 h), the IC50 stood at 16.5 ± 2.6 µM. For the same molecule, in series [4] (Homo sapiens, MCF7, 72 h), it took 10.2 ± 2.1 µM to reach half-maximal inhibition (IC50).
In turn, `O=C(CC(C(=O)c1ccccc1)n1cncn1)c1ccccc1` (stereo not shown) [Compound 10a, 4-diphenyl-2-(1H-1,2,4-triazol-1-yl) butane-1,4-dione] returned a melting point of 115 to 118 °C. This molecule came in with a half-inhibitory concentration (IC50) in series [1] (Homo sapiens, MRC5, 72 h) of 21.7 ± 1.5 µM. In series [3] (Homo sapiens, A549, 72 h), this molecule displayed an IC50 of 21.1 ± 4.2 µM. The molecule also returned an IC50 in series [4] (72 h) of 6.4 ± 1.7 µM. Half-maximal inhibition in series [4] (Homo sapiens, MCF7, 72 h) (IC50) was put at 6.43 µM.
